Drawing on ChEMBL document CHEMBL1130183, “Synthesis of a novel sialic acid derivative (sialylphospholipid) as an antirotaviral agent” (J Med Chem, 1997), this text covers IC50 for three compounds.

The IC50 is the concentration needed to halve the response being measured.

Assay type in all cases: functional, organism-based; call rule not given here
Assay [1] relates to Simian rotavirus. The assay is described as follows: Inhibitory concentration against Simian rotavirus SA-11 strain. The note with it: Rotavirus A.
Assay [2] concerns Rotavirus. Kind of assay: Inhibitory concentration against human rotavirus MO strain; No inhibition.
For assay [3], the system named is Simian rotavirus. The assay is described as follows: Inhibitory concentration against Simian rotavirus SA-11 strain; No inhibition.
Assay [4] deals with Rotavirus. Kind of assay: Inhibitory concentration against human rotavirus MO strain.

The structures appear in SMILES notation.

`CC(=O)NC1C(O)CC(O)(C(=O)O)OC1C(O)C(O)CO` (stereo not given) returned a half-inhibitory concentration (IC50) in assay [1] of 4280 µM. In other words, the millimolar range.

For the compound `CCCCCCCCCCCCCCCCCC(=O)OCC(COP(=O)([O-])OCC[N+](C)(C)C)OC(=O)CCCCCCCCCCCCCCCCC` (stereo not given), the IC50 result in assay [2] and in assay [3] was “Not Active” each time.

`CCCCCCCCCCCCCCCCCC(=O)OCC(COP(=O)(O)OCCCCCCCCOC1(C(=O)O)CC(O)C(NC(C)=O)C([C@H](O)[C@H](O)CO)O1)OC(=O)CCCCCCCCCCCCCCCCC` (stereo not given in full): the IC50 in assay [1] came out at 4.35 µM; in assay [4] it was 16.1 µM.
